Holding throughout (format): ADME, organism-based
Data set [1] is described as follows: Half life in plasma of C57BL/6 mouse at 1 mg/kg, iv and 2 mg/kg, po.
Data set [2] in a line: Bioavailability in Sprague-Dawley rat at 1 mg/kg, iv and 2 mg/kg, po. As to conditions: in vivo.
Data set [3] can be described thus: Half life in plasma of C57BL/6 mouse.
A short description of data set [4]: Bioavailability in C57BL/6 mouse at 1 mg/kg, iv and 2 mg/kg, po. The settings on record: in vivo.
The nature of data set [5]: Half life in Sprague-Dawley rat. As to conditions: in vivo.
The nature of data set [6]: Plasma clearance in Sprague-Dawley rat.
Data set [7] can be described thus: Plasma clearance in C57BL/6 mouse.

As for `O=C(CCc1ccc(-c2ccc(O)cc2)cc1)Nc1ccccc1C(=O)O`, the half-life in data set [1] was 2.4 h.

On to `C[C@@H]1CCC(C(=O)O)=C(NC(=O)[C@@H](N)Cc2nc(-c3ccc(F)cn3)no2)C1`, for which the values for the bioavailability in data set [2] and in data set [4] were 81% and 100%, respectively. In addition, the figures for the half-life in data set [3] and in data set [5] were 5.6 h and 5.5 h, respectively. The values for the clearance in data set [6] and in data set [7] were 0.7 mL/min/kg and 1.7 mL/min/kg, respectively.

For the compound `C[C@@H]1CCC(C(=O)O)=C(NC(=O)CCc2nc(-c3ccc(F)cn3)no2)C1`, in data set [3], the half-life was 4.7 h. For the same compound, the bioavailability in data set [4] was determined as 54%. Also, in data set [7], the clearance was determined as 3.3 mL/min/kg.

Consider `O=C(CCc1nc(-c2ccc(O)cn2)no1)NC1=C(C(=O)O)CCCC1`, for which the bioavailability in data set [2] was 8.1%. In addition, the half-life was 1.4 h in data set [3] and 2.2 h in data set [5]. Moreover, the clearance in data set [6] came to 1 mL/min/kg.

Take `N[C@@H](Cc1nc(-c2ccc(O)cn2)no1)C(=O)NC1=C(C(=O)O)CCCC1`: the results for the bioavailability in data set [2] and in data set [4] were 2% and 9%, respectively. The half-life in data set [3] was 4.5 h; in data set [5], 2.3 h. Moreover, the clearance turned out to be 0.7 mL/min/kg in data set [6] and 2.5 mL/min/kg in data set [7].

`C[C@@H]1CCC(C(=O)O)=C(NC(=O)[C@@H](N)Cc2nc(-c3ccc(O)cn3)no2)C1` gave a half-life in data set [3] of 2.64 h. The bioavailability in data set [4] was 7.5%. Moreover, the clearance in data set [7] was 9.22 mL/min/kg.

What is called half-life is the time in which the quantity being followed falls by half. Read a high half-life as slow decline. As usually defined, the bioavailability is the share of a dose that reaches the circulation, judged against a reference dose that is usually intravenous. A lower bioavailability goes with poor availability. Broadly, the clearance is a measure of how efficiently the substance is removed, as volume per time. The low end stands for a low capacity for elimination, the high end for a high capacity for elimination.

(Values after ChEMBL document CHEMBL1770132, “The discovery of high affinity agonists of GPR109a with reduced serum shift and improved ADME properties” (Bioorg Med Chem Lett, 2011).)
